In experiment [1] the target is Mitogen-activated protein kinase 11 (Homo sapiens) (UniProt Q15759). As to the kind of experiment: Inhibition of MAPK11 (unknown origin) at 50 nM by Z'LYTE screening method relative to control.
Experiment [2] addresses T1, Serine/threonine-protein kinase D1 (Homo sapiens) (UniProt Q15139).
T1 sequence (whole entry): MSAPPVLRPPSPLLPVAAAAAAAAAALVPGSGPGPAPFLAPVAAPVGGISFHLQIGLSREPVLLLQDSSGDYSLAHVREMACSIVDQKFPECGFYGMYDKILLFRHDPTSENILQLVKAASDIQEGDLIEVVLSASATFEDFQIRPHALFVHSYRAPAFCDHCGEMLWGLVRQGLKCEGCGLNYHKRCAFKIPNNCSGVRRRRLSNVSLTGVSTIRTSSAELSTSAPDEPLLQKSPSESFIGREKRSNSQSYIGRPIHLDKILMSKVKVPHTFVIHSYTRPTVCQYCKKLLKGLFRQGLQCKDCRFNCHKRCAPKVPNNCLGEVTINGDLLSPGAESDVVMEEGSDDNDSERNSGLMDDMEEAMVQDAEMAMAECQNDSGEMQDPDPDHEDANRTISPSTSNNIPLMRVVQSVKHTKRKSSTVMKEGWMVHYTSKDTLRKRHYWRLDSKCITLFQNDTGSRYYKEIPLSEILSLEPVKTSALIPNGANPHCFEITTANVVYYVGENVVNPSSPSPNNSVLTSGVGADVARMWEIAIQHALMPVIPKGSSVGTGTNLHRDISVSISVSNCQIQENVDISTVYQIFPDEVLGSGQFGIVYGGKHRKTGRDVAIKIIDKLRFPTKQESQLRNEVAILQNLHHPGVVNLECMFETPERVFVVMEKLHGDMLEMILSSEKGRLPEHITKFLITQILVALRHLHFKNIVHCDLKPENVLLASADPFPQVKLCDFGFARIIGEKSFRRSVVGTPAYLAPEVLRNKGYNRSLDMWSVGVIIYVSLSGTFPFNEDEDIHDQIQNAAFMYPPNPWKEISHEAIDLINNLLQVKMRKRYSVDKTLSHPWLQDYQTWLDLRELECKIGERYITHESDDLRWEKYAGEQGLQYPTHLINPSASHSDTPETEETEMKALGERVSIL
As to the kind of experiment: Inhibition of PKCmu (unknown origin) at 50 nM by Z'LYTE screening method relative to control.

The target of experiment [3] is T2, Protein kinase C epsilon type (Homo sapiens) (UniProt Q02156).
T2 sequence (whole entry): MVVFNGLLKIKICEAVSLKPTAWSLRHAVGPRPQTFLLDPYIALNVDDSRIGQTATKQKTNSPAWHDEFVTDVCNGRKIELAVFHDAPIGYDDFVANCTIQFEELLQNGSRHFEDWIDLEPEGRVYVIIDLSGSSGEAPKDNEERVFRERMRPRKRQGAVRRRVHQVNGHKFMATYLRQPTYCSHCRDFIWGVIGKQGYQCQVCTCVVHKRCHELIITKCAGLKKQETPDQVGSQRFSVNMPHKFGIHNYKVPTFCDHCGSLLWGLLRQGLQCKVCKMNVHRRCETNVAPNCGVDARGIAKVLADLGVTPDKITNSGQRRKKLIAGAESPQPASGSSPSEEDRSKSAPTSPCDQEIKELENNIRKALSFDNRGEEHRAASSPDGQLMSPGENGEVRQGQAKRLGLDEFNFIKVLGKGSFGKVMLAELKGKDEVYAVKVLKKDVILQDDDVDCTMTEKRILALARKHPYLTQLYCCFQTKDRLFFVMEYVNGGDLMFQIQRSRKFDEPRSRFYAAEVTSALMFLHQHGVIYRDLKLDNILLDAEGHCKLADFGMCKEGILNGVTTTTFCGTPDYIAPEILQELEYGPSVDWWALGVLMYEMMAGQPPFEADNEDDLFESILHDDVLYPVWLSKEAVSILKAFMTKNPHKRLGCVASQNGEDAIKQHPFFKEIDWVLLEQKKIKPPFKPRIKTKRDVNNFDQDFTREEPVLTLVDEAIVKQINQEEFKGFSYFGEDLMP
As to the kind of experiment: Inhibition of PKCepsilon (unknown origin) at 50 nM by Z'LYTE screening method relative to control.

Experiment [4] addresses Protein kinase C gamma type (Homo sapiens) (UniProt P05129). As to the kind of experiment: Inhibition of PKC gamma (unknown origin) at 50 nM by Z'LYTE screening method relative to control.
For experiment [5], the target named is T3, Eukaryotic elongation factor 2 kinase (Homo sapiens) (UniProt O00418).
T3 sequence (whole entry): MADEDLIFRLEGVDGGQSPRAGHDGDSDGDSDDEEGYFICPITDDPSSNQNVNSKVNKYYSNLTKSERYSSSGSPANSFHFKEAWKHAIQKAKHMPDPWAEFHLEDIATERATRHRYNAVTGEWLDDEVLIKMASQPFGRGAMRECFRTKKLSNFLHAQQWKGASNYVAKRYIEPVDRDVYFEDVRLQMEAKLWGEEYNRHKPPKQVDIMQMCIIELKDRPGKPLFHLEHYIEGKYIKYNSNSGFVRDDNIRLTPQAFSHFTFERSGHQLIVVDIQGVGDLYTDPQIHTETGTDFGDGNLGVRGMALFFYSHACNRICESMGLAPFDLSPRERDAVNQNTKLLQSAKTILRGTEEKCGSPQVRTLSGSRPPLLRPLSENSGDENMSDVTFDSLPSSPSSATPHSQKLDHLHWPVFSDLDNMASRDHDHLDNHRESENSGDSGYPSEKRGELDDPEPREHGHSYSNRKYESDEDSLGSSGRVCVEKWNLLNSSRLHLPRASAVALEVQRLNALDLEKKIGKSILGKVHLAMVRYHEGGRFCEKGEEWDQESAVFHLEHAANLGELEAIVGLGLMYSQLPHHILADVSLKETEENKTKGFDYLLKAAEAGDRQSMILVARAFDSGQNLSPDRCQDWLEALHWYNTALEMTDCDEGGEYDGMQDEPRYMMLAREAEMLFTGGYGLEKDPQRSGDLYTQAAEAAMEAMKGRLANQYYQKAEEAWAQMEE
As to the kind of experiment: Inhibition of EEF2K (unknown origin) at 50 nM by Z'LYTE screening method relative to control.

The target of experiment [6] is Protein kinase C beta type (Homo sapiens) (UniProt P05771). As to the kind of experiment: Inhibition of PKCbeta1 (unknown origin) at 50 nM by Z'LYTE screening method relative to control.
Protein kinase C beta type (Homo sapiens), sequence (P05771 2-671 limits assumed): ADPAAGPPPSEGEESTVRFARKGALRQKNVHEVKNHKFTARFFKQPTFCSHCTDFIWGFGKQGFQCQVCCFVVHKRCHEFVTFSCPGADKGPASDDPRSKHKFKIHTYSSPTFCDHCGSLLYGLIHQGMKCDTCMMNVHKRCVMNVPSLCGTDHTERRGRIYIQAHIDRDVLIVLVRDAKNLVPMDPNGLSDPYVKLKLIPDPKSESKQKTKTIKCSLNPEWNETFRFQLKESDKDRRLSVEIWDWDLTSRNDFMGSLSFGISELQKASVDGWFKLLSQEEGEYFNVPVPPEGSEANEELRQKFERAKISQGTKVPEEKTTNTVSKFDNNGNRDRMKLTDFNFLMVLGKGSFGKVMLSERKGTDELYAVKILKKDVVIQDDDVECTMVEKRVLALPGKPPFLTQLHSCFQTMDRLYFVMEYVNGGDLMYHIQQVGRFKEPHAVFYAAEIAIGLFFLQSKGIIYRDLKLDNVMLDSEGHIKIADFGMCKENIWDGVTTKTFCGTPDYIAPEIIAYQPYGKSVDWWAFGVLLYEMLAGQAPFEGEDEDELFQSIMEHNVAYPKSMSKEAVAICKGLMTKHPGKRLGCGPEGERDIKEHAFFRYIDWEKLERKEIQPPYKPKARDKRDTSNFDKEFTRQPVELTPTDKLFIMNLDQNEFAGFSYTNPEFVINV
The target of experiment [7] is CDK1/Cyclin A (Homo sapiens) (UniProt P06493+P20248). As to the kind of experiment: Inhibition of CDK1/CyclinA (unknown origin) at 50 nM by Z'LYTE screening method relative to control. The class given is protein-complex assay.
CDK1/Cyclin A (Homo sapiens), sequence (P06493 whole entry, looked up): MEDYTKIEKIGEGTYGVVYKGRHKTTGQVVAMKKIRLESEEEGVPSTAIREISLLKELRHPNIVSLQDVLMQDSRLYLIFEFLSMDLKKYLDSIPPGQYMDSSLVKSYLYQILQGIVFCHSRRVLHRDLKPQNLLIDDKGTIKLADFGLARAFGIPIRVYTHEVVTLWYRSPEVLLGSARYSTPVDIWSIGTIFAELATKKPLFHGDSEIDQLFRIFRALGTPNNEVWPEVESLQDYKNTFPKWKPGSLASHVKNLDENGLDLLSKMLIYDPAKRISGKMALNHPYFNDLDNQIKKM
CDK1/Cyclin A (Homo sapiens), sequence (P20248 whole entry, looked up): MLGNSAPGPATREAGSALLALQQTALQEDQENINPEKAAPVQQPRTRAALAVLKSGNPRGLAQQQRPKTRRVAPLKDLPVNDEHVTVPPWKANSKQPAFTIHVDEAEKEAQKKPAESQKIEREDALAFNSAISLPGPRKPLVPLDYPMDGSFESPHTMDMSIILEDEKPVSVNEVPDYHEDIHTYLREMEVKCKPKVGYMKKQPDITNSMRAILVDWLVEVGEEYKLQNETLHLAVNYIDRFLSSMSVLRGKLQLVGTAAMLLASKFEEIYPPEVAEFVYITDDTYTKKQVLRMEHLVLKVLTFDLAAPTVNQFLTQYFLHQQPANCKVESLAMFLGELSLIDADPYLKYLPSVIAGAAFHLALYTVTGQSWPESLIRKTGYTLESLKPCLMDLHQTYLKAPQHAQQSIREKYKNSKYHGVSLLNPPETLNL

This note sets out measurements from ChEMBL document CHEMBL5154740, “Novel Aurora A and Protein Kinase C (α, β1, β2, and θ) Multitarget Inhibitors: Impact of Selenium Atoms on the Potency and Selectivity” (J Med Chem, 2022).

Mitogen-activated protein kinase 11 (Homo sapiens), sequence (Q15759 whole entry): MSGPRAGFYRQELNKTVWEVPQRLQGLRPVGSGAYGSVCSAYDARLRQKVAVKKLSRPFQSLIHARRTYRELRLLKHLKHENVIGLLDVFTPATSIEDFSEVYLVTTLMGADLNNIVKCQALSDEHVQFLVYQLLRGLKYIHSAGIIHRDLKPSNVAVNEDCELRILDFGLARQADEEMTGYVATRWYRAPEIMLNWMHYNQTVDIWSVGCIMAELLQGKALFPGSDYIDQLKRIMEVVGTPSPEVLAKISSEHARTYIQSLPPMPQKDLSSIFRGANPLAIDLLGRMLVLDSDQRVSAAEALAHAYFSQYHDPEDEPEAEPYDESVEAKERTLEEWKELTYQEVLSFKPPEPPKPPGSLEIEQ

Consider `CCN(CC)CCCC(C)Nc1nc(-n2[se]c3ccccc3c2=O)nc2[nH]cnc12` (centres undefined), for which the inhibition (usually the share of the control response that was lost under treatment) in experiment [1] is 3%; in experiment [2], 4%; in experiment [3], 8%; in experiment [4], 6%; in experiment [5], 0%; in experiment [6], 8%. Moreover, in experiment [7], the inhibition was determined as 3%.
On to `O=c1c2ccccc2[se]n1-c1nc(NC2CCCCC2)c2nc[nH]c2n1`, for which the inhibition amounted to 3% in experiment [1]; 5% in experiment [2]; 6% in experiment [3]; 45% in experiment [4]; 1% in experiment [5]; 59% in experiment [6]. Besides, the inhibition in experiment [7] was 3%.
With `CCN(CC)CCCC(C)Nc1nc(N2Cc3ccccc3C2=O)nc2[nH]cnc12` (centres undefined), the inhibition is 3% in experiment [1]; 0% in experiment [2]; 4% in experiment [3]; 1% in experiment [4]; 1% in experiment [5]; 5% in experiment [6]. Moreover, in experiment [7], the inhibition came out at 1%.
With `O=C1c2ccccc2CN1c1nc(N[C@H]2CC[Se]C2)c2nc[nH]c2n1`, the inhibition was 3% in experiment [1]; 1% in experiment [2]; 2% in experiment [3]; 3% in experiment [4]; 2% in experiment [5]; 7% in experiment [6]. The compound also came in with an inhibition in experiment [7] of 1%.
Consider `O=c1c2ccccc2[se]n1-c1nc(N[C@H]2CC[Se]C2)c2nc[nH]c2n1`, for which the inhibition in experiment [1] was 9%; in experiment [2] it was 7%; in experiment [3], 5%; in experiment [4] it was 47%; in experiment [5], 2%; in experiment [6] it was 95%. The compound also gave an inhibition in experiment [7] of 0%.
`O=c1c2ccccc2[se]n1-c1nc(N[C@@H]2C[C@H]3CC[C@@H]2C3)c2nc[nH]c2n1`: the inhibition in experiment [1] worked out at 4%; in experiment [2], 2%; in experiment [3] it was 2%; in experiment [4] it was 0%; in experiment [5] it was 2%; in experiment [6] it was 0%. In addition, the inhibition in experiment [7] came out at 1%.
Turning to `O=c1c2ccccc2[se]n1-c1nc(N[C@H]2CCOC2)c2nc[nH]c2n1`, the inhibition amounted to 3% in experiment [1]; 0% in experiment [2]; 0% in experiment [3]; 25% in experiment [4]; 2% in experiment [5]; 84% in experiment [6]. Also, the inhibition in experiment [7] amounted to 1%.
For the compound `C[C@@H]1[C@H]2C[C@@H](C[C@H]1Nc1nc(-n3[se]c4ccccc4c3=O)nc3[nH]cnc13)C2(C)C`, the inhibition amounted to 4% in experiment [1]; 1% in experiment [2]; 2% in experiment [3]; 1% in experiment [4]; 2% in experiment [5]; 5% in experiment [6]. The same compound returned an inhibition in experiment [7] of 2%.
With `O=C1c2ccccc2CN1c1nc(NC2CCCC2)c2nc[nH]c2n1`, the inhibition in experiment [1] was determined as 0%; in experiment [2], 1%; in experiment [3], 0%; in experiment [4], 2%; in experiment [5], 2%; in experiment [6] it was 0%. Moreover, the inhibition in experiment [7] came to 0%.
As to `O=C1c2ccccc2CN1c1nc(NC2CCCCC2)c2nc[nH]c2n1`, the inhibition in experiment [1] stood at 1%; in experiment [2], 6%; in experiment [3] it was 4%; in experiment [4], 0%; in experiment [5], 1%; in experiment [6], 5%. For the same compound, the inhibition in experiment [7] came to 2%.
Consider `CCCNc1nc(-n2[se]c3ccccc3c2=O)nc2[nH]cnc12`, for which the inhibition in experiment [1] was determined as 4%; in experiment [2], 0%; in experiment [3], 6%; in experiment [4], 1%; in experiment [5] it was 0%; in experiment [6], 2%. Moreover, the inhibition in experiment [7] was 2%.
Regarding `O=c1c2ccccc2[se]n1-c1nc(Nc2ccccc2)c2nc[nH]c2n1`, the inhibition in experiment [1] was 2%; in experiment [2] it was 3%; in experiment [3], 0%; in experiment [4], 0%; in experiment [5], 1%; in experiment [6], 6%. The compound further gave an inhibition in experiment [7] of 2%.
